# Results published in the supplement of paper PMC10307832.
# Key:
# Experiment in all cases: relative viability (nuclei count vs DMSO), 5 days (fraction); higher = more cells survive
# [1] = test system: NCI-H1355
# Procedure, shortened: (§1)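 Lung cancer cell lines were seeded in 1536-well plates and dosed by pin tool the next day, with either a single drug or a fixed anchor-drug dose combined with five library-drug doses (not always all listed) spaced in √10 steps. Five days later, one step fixed the cells and stained their nuclei (final 0.05% Triton X-100, 1% formaldehyde, 1 ug/ml Hoechst), and nuclei were counted on 4× images. Relative viability is the nuclei count in treated wells divided by the count in vehicle wells, and each value is the median of duplicate plates.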
# [2] = test system: NCI-H1993
# Procedure, shortened: as §1
# [3] = test system: NCI-H1944
# Procedure, shortened: as §1
# [4] = test system: SK-LU-1
# Procedure, shortened: as §1
# [5] = test system: LCLC-97TM1
# Procedure, shortened: as §1
# [6] = test system: NCI-H647
# Procedure, shortened: as §1
# [7] = test system: NCI-H441
# Procedure, shortened: as §1
# [8] = test system: EMC-BAC-2
# Procedure, shortened: as §1
# [9] = test system: NCI-H2009
# Procedure, shortened: as §1
# [10] = test system: NCI-H1755
# Procedure, shortened: as §1
# [11] = test system: NCI-H2170
# Procedure, shortened: as §1
# [12] = test system: NCI-H1666
# Procedure, shortened: as §1
# [13] = test system: NCI-H1975
# Procedure, shortened: as §1
# [14] = test system: SW 1573
# Procedure, shortened: as §1
# [15] = test system: NCI-H520
# Procedure, shortened: as §1
# [16] = test system: NCI-H2126
# Procedure, shortened: as §1
# [17] = test system: NCI-H460
# Procedure, shortened: as §1
# [18] = test system: NCI-H727
# Procedure, shortened: as §1
# [19] = test system: NCI-H2347
# Procedure, shortened: as §1
# [20] = test system: ABC-1
# Procedure, shortened: as §1
# [21] = test system: NCI-H1793
# Procedure, shortened: as §1
# [22] = test system: PC-14
# Procedure, shortened: as §1
# [23] = test system: PC-3 [JPC-3]
# Procedure, shortened: as §1
smiles,measurement,setting,value
O=C(O)CCCCC(CCSCc1ccccc1)SCc1ccccc1 (stereo not given) [CPI-613] + Cc1cc(Nc2cc(N3CCN(C)CC3)nc(Sc3ccc(NC(=O)C4CC4)cc3)n2)n[nH]1 [Tozasertib] (partner 0.1 µM),relative viability,[1]; first compound 5 µM,0.541
same,relative viability,[1]; first compound 15.81 µM,0.512
same,relative viability,[1]; first compound 50 µM,0.508
same,relative viability,[1]; first compound 158.11 µM,0.314
same,relative viability,[1]; first compound 500 µM,0.112
same,relative viability,[2]; first compound 5 µM,0.631
same,relative viability,[2]; first compound 15.81 µM,0.669
same,relative viability,[2]; first compound 50 µM,0.559
same,relative viability,[2]; first compound 158.11 µM,0.507
same,relative viability,[2]; first compound 500 µM,0.426
same,relative viability,[3]; first compound 5 µM,0.264
same,relative viability,[3]; first compound 15.81 µM,0.233
same,relative viability,[3]; first compound 50 µM,0.268
same,relative viability,[3]; first compound 158.11 µM,0.195
same,relative viability,[3]; first compound 500 µM,0.127
same,relative viability,[4]; first compound 5 µM,0.321
same,relative viability,[4]; first compound 15.81 µM,0.244
same,relative viability,[4]; first compound 50 µM,0.299
same,relative viability,[4]; first compound 158.11 µM,0.25
same,relative viability,[4]; first compound 500 µM,0.195
same,relative viability,[5]; first compound 5 µM,0.209
same,relative viability,[5]; first compound 15.81 µM,0.204
same,relative viability,[5]; first compound 50 µM,0.247
same,relative viability,[5]; first compound 158.11 µM,0.138
same,relative viability,[5]; first compound 500 µM,0.0361
same,relative viability,[6]; first compound 5 µM,0.384
same,relative viability,[6]; first compound 15.81 µM,0.244
same,relative viability,[6]; first compound 50 µM,0.286
same,relative viability,[6]; first compound 158.11 µM,0.0859
same,relative viability,[6]; first compound 500 µM,0.021
same,relative viability,[7]; first compound 5 µM,0.704
same,relative viability,[7]; first compound 15.81 µM,0.633
same,relative viability,[7]; first compound 50 µM,0.649
same,relative viability,[7]; first compound 158.11 µM,0.247
same,relative viability,[7]; first compound 500 µM,0.0826
same,relative viability,[8]; first compound 5 µM,0.333
same,relative viability,[8]; first compound 15.81 µM,0.287
same,relative viability,[8]; first compound 50 µM,0.284
same,relative viability,[8]; first compound 158.11 µM,0.124
same,relative viability,[8]; first compound 500 µM,0.0704
same,relative viability,[9]; first compound 5 µM,0.67
same,relative viability,[9]; first compound 15.81 µM,0.696
same,relative viability,[9]; first compound 50 µM,0.699
same,relative viability,[9]; first compound 158.11 µM,0.136
same,relative viability,[9]; first compound 500 µM,0.0212
same,relative viability,[10]; first compound 5 µM,0.558
same,relative viability,[10]; first compound 15.81 µM,0.52
same,relative viability,[10]; first compound 50 µM,0.581
same,relative viability,[10]; first compound 158.11 µM,0.402
same,relative viability,[10]; first compound 500 µM,0.356
same,relative viability,[11]; first compound 5 µM,0.732
same,relative viability,[11]; first compound 15.81 µM,0.55
same,relative viability,[11]; first compound 50 µM,0.694
same,relative viability,[11]; first compound 158.11 µM,0.347
same,relative viability,[11]; first compound 500 µM,0.183
same,relative viability,[12]; first compound 5 µM,0.558
same,relative viability,[12]; first compound 15.81 µM,0.634
same,relative viability,[12]; first compound 50 µM,0.614
same,relative viability,[12]; first compound 158.11 µM,0.233
same,relative viability,[12]; first compound 500 µM,0.155
same,relative viability,[13]; first compound 5 µM,0.7
same,relative viability,[13]; first compound 15.81 µM,0.639
same,relative viability,[13]; first compound 50 µM,0.676
same,relative viability,[13]; first compound 158.11 µM,0.324
same,relative viability,[13]; first compound 500 µM,0.233
same,relative viability,[14]; first compound 5 µM,0.232
same,relative viability,[14]; first compound 15.81 µM,0.196
same,relative viability,[14]; first compound 50 µM,0.15
same,relative viability,[14]; first compound 158.11 µM,0.103
same,relative viability,[14]; first compound 500 µM,0.0651
same,relative viability,[15]; first compound 5 µM,0.42
same,relative viability,[15]; first compound 15.81 µM,0.378
same,relative viability,[15]; first compound 50 µM,0.352
same,relative viability,[15]; first compound 158.11 µM,0.48
same,relative viability,[15]; first compound 500 µM,0.375
same,relative viability,[16]; first compound 5 µM,0.775
same,relative viability,[16]; first compound 15.81 µM,0.778
same,relative viability,[16]; first compound 50 µM,0.817
same,relative viability,[16]; first compound 158.11 µM,0.281
same,relative viability,[16]; first compound 500 µM,0.0758
same,relative viability,[17]; first compound 5 µM,0.497
same,relative viability,[17]; first compound 15.81 µM,0.28
same,relative viability,[17]; first compound 50 µM,0.457
same,relative viability,[17]; first compound 158.11 µM,0.371
same,relative viability,[17]; first compound 500 µM,0.418
same,relative viability,[18]; first compound 5 µM,0.557
same,relative viability,[18]; first compound 15.81 µM,0.697
same,relative viability,[18]; first compound 50 µM,0.685
same,relative viability,[18]; first compound 158.11 µM,0.369
same,relative viability,[18]; first compound 500 µM,0.455
same,relative viability,[19]; first compound 5 µM,0.526
same,relative viability,[19]; first compound 15.81 µM,0.561
same,relative viability,[19]; first compound 50 µM,0.566
same,relative viability,[19]; first compound 158.11 µM,0.552
same,relative viability,[19]; first compound 500 µM,0.524
same,relative viability,[20]; first compound 5 µM,0.215
same,relative viability,[20]; first compound 15.81 µM,0.189
same,relative viability,[20]; first compound 50 µM,0.189
same,relative viability,[20]; first compound 158.11 µM,0.179
same,relative viability,[20]; first compound 500 µM,0.207
same,relative viability,[21]; first compound 5 µM,0.297
same,relative viability,[21]; first compound 15.81 µM,0.281
same,relative viability,[21]; first compound 50 µM,0.308
same,relative viability,[21]; first compound 158.11 µM,0.149
same,relative viability,[21]; first compound 500 µM,0.0274
same,relative viability,[22]; first compound 5 µM,0.556
same,relative viability,[22]; first compound 15.81 µM,0.531
same,relative viability,[22]; first compound 50 µM,0.553
same,relative viability,[22]; first compound 158.11 µM,0.502
same,relative viability,[22]; first compound 500 µM,0.536
same,relative viability,[23]; first compound 5 µM,0.81
same,relative viability,[23]; first compound 15.81 µM,0.808
same,relative viability,[23]; first compound 50 µM,0.762
same,relative viability,[23]; first compound 158.11 µM,0.499
same,relative viability,[23]; first compound 500 µM,0.498
